Results reported in patent US8580829B2 (Boehringer Ingelheim International GmbH, priority 2010, dated 2013).

What was measured:
[1] = system: synthesis of LTB4 in human whole blood; assay: human whole blood LTB4 production inhibition assay; assay type: cell-based; conditions: Homo sapiens, heparinized human whole blood, calcimycin 20 μM; read-out: hWB LTB4 IC50
Description: Compounds are additionally tested in a human whole blood assay to determine their ability to inhibit the synthesis of LTB4 in a cellular system. Compounds are combined with heparinized human whole blood and incubated for 15 minutes at 37° C. Calcimycin (20 μM final, prepared in phosphate-buffered saline, pH 7.4) is then added and the mixture is incubated for another 30 minutes at 37° C. The samples are centrifuged for 5 min at low speed (1500×g) and the plasma layer is removed. Plasma LTB4 concentrations are then measured using an antibody-based homogenous time-resolved fluorescence method (CisBio, Bedford, Mass.).

[2] = molecular target: T1, recombinant human FLAP protein (Homo sapiens, UniProt P20292); assay: FLAP binding assay (Scintillation Proximity Assay, displacement of [125I]L-691,831); conditions: recombinant human FLAP membranes, [125I]L-691,831 probe; read-out: FLAP SPA IC50
T1 construct: made in house; host or cells: Sf9 insect cells (100,000 x g membrane fraction)
T1 sequence (P20292 1-161): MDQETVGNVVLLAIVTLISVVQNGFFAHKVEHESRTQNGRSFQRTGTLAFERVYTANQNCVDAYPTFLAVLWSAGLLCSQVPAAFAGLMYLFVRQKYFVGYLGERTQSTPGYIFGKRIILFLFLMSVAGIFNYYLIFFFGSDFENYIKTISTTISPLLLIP
Description: Cell pellets produced from sf9 insect cells expressing recombinant human FLAP protein are resuspended in buffer A [15 mM Tris-HCl (pH 7.5), 2 mM MgCl2, 0.3 mM EDTA, 1 mM PMSF]. The cells are lysed with a Dounce homogenizer and the material is centrifuged at 10,000×g for 10 minutes. The supernatant is then collected and centrifuged at 100,000×g for 60 minutes. To prepare membrane protein for an assay, an aliquot of the 100,000×g pellet is resuspended in 1 ml of buffer A, Dounce homogenized, and finally subjected to polytron mixing (30 seconds). Membrane protein (25 μl, 5 μg) is mixed with WGA SPA beads (Amersham) and stirred for 1 h.

Structure (SMILES)	IC50 [1] [nM]	IC50 [2] [nM]
COC1CN(C(=O)Cn2cc(-c3nc(C4(c5ccc(-c6cnc(N)nc6)cc5)CCC4)no3)cn2)C1 [Example 236, 2-[4-(3-{1-[4-(2-Amino-pyrimidin-5-yl)-phenyl]-cyclobutyl}-[1,2,4]oxadiazol-5-yl)-pyrazol-1-yl]-1-(3-methoxy-azetidin-1-yl)-ethanone]	230	5.6
CO[C@@H]1CCN(C(=O)Cn2cc(-c3nc(C4(c5ccc(-c6cnc(N)nc6)cc5)CCC4)no3)cn2)C1 [Example 256, 2-[4-(3-{1-[4-(2-Amino-pyrimidin-5-yl)-phenyl]-cyclobutyl}-[1,2,4]oxadiazol-5-yl)-pyrazol-1-yl]-1-((R)-3-methoxy-pyrrolidin-1-yl)-ethanone]	220	22
CNC(=O)n1cc(-c2nc(C3(c4ccc(-c5cnc(N)nc5)cc4)CCC3)no2)cn1 [Example 213, 4-(3-{1-[4-(2-Amino-pyrimidin-5-yl)-phenyl]-cyclobutyl}-[1,2,4]oxadiazol-5-yl)-pyrazole-1-carboxylic acid methylamide]	110	0.85
CN(CCO)c1cnc(-c2nc(C3(c4ccc(-c5cnc(N)nc5)cc4)CCC3)no2)cn1 [Example 61, 2-{[5-(3-{1-[4-(2-amino-pyrimidin-5-yl)-phenyl]-cyclobutyl}-1,2,4-oxadiazol-5-yl)-pyrazin-2-yl]-methyl-amino}-ethanol]	53	1.5
Cc1ccc(-c2nc(C3(c4ccc(-c5cnc(N)nc5)cc4)CCC3)no2)cc1Cl [Example 53, 5-(4-{1-[5-(3-Chloro-4-methyl-phenyl)-1,2,4-oxadiazol-3-yl]-cyclobutyl}-phenyl)-pyrimidin-2-ylamine]	580	6.2
Nc1ncc(-c2ccc(C3(c4noc(-c5cccnc5Cl)n4)CCC3)cc2)cn1 [Example 169, 5-(4-{1-[5-(2-Chloro-pyridin-3-yl)-1,2,4-oxadiazol-3-yl]-cyclobutyl}-phenyl)-pyrimidin-2-ylamine]	130	2.1
Nc1ncc(-c2ccc(C3(c4noc(-c5cccnc5N)n4)CCC3)cc2)cn1 [Example 4, 5-(4-{1-[5-(2-Amino-pyridin-3-yl)-1,2,4-oxadiazol-3-yl]-cyclobutyl}-phenyl)-pyrimidin-2-ylamine]	720	4.6
Cn1cc(-c2nc(C3(c4ccc(-c5ccc(N)nc5)cc4)CCC3)no2)cn1 [Example 215, 5-(4-{1-[5-(1-Methyl-1H-pyrazol-4-yl)-[1,2,4]oxadiazol-3-yl]-cyclobutyl}-phenyl)-pyridin-2-ylamine]	26	2.1
CN(C)C(=O)Cn1cc(-c2nc(C3(c4ccc(-c5cnc(N)cn5)cc4)CCC3)no2)cn1 [Example 304, 2-[4-(3-{1-[4-(5-Amino-pyrazin-2-yl)-phenyl]-cyclobutyl}-[1,2,4]oxadiazol-5-yl)-pyrazol-1-yl]-N,N-dimethyl-acetamide]	65	10
Nc1ncc(-c2ccc(C3(c4noc(N5CCCCC5)n4)CCC3)cc2)cn1 [Example 80, 5-{4-[1-(5-Piperidin-1-yl-1,2,4-oxadiazol-3-yl)-cyclobutyl]-phenyl}-pyrimidin-2-ylamine]	390	6.5
Nc1ncc(-c2ccc(C3(c4noc(C(=O)N5CCCC5)n4)CCC3)cc2)cn1 [Example 11, (3-{1-[4-(2-Amino-pyrimidin-5-yl)-phenyl]-cyclobutyl}-1,2,4-oxadiazol-5-yl)-pyrrolidin-1-yl-methanone]	1300	120
Nc1ncc(-c2ccc(C3(c4noc(-c5csc(N6CCNCC6)n5)n4)CCC3)cc2)cn1 [Example 266, 5-(4-{1-[5-(2-Piperazin-1-yl-thiazol-4-yl)-[1,2,4]oxadiazol-3-yl]-cyclobutyl}-phenyl)-pyrimidin-2-ylamine]	160	6.5
CC(C)(O)CNc1ccc(-c2nc(C3(c4ccc(-c5cnc(N)nc5)cc4)CCC3)no2)nn1 [Example 114, 1-[6-(3-{1-[4-(2-Amino-pyrimidin-5-yl)-phenyl]-cyclobutyl}-1,2,4-oxadiazol-5-yl)-pyridazin-3-ylamino]-2-methyl-propan-2-ol]	290	2.6
CS(=O)(=O)Nc1nc(C2(c3ccc(-c4cnc(N)nc4)cc3)CCC2)no1 [Example 27, N-(3-{1-[4-(2-Amino-pyrimidin-5-yl)-phenyl]-cyclobutyl}-1,2,4-oxadiazol-5-yl)-methanesulfonamide]	> 5000	340
COc1cc(-c2nc(C3(c4ccc(-c5cnc(N)nc5)cc4)CCC3)no2)ccn1 [Example 174, 5-(4-{1-[5-(2-Methoxy-pyridin-4-yl)-1,2,4-oxadiazol-3-yl]-cyclobutyl}-phenyl)-pyrimidin-2-ylamine]	510	5.3

The remaining lines, values ahead:

IC50 [1] [nM]	IC50 [2] [nM]	Structure (SMILES)
2400	15	Nc1ncc(-c2ccc(C3(c4noc(-c5cccc(S(N)(=O)=O)c5)n4)CCC3)cc2)cn1 [Example 47, 3-(3-{1-[4-(2-Amino-pyrimidin-5-yl)-phenyl]-cyclobutyl}-1,2,4-oxadiazol-5-yl)-benzenesulfonamide]
570	5.5	Cc1noc(C)c1-c1nc(C2(c3ccc(-c4cnc(N)nc4)cc3)CCC2)no1 [Example 164, 5-(4-{1-[5-(3,5-Dimethyl-isoxazol-4-yl)-1,2,4-oxadiazol-3-yl]-cyclobutyl}-phenyl)-pyrimidin-2-ylamine]
1400	11	Nc1ncc(-c2ccc(C3(c4noc(-c5nccnc5N)n4)CCC3)cc2)cn1 [Example 19, 5-(4-{1-[5-(3-Amino-pyrazin-2-yl)-1,2,4-oxadiazol-3-yl]-cyclobutyl}-phenyl)-pyrimidin-2-ylamine]
98	1.3	CS(=O)(=O)N1CCN(c2ccc(-c3nc(C4(c5ccc(-c6cnc(N)nc6)cc5)CCC4)no3)cn2)CC1 [Example 109, 5-[4-(1-{5-[6-(4-Methanesulfonyl-piperazin-1-yl)-pyridin-3-yl]-1,2,4-oxadiazol-3-yl}-cyclobutyl)-phenyl]-pyrimidin-2-ylamine]
61	2.3	CS(=O)(=O)CCn1cc(-c2nc(C3(c4ccc(-c5cnc(N)nc5)cc4)CCC3)no2)cn1 [Example 231, 5-[4-(1-{5-[1-(2-Methanesulfonyl-ethyl)-1H-pyrazol-4-yl]-[1,2,4]oxadiazol-3-yl}-cyclobutyl)-phenyl]-pyrimidin-2-ylamine]
> 5000	29	Cc1n[nH]c(C)c1Cc1nc(C2(c3ccc(-c4cnc(N)nc4)cc3)CCC2)no1 [Example 279]
810	1.7	Cc1ccc(-c2nc(C3(c4ccc(-c5cnc(N)nc5)cc4)CCCCC3)no2)cn1 [Example 154, 5-(4-{1-[5-(6-Methyl-pyridin-3-yl)-1,2,4-oxadiazol-3-yl]-cyclohexyl}-phenyl)-pyrimidin-2-ylamine]
> 5000	2.9	Nc1ncc(-c2ccc(C3(c4noc(-c5ccc[nH]c5=O)n4)CCC3)cc2)cn1 [Example 173, 3-(3-{1-[4-(2-amino-pyrimidin-5-yl)-phenyl]-cyclobutyl}-1,2,4-oxadiazol-5-yl)-1H-pyridin-2-one]
